System: 388556-164-R-J1-PDC complex spheroid viability
Experiment: Anticancer human tumor 388556-164-R-J1-PDC patient-derived colon adenocarcinoma cell line growth inhibition [RAS]
Settings: for viability, T/C: stronger effect = lower value
How it was run: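 Agents were tested in combination matrices in half-log decrements from a top concentration at or near clinical Cmax (10 microM if undetermined). Targets were multi-cell spheroids of tumour lines plus HUVEC and MSC stromal cells.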

[1] = curve of first compound, second compound 0.00316 µM
[2] = curve of first compound, second compound 0.01 µM
[3] = curve of first compound, second compound 0.0316 µM
[4] = curve of first compound, second compound 0.1 µM
[5] = curve of first compound, second compound 0.316 µM
[6] = curve of first compound, second compound 1 µM
[7] = second compound 0.00316 µM, first compound 0.0316 µM
[8] = second compound 0.00316 µM, first compound 0.1 µM
[9] = second compound 0.00316 µM, first compound 0.316 µM
[10] = second compound 0.00316 µM, first compound 1 µM
[11] = second compound 0.01 µM, first compound 0.0316 µM
[12] = second compound 0.01 µM, first compound 0.1 µM
[13] = second compound 0.01 µM, first compound 0.316 µM
[14] = second compound 0.01 µM, first compound 1 µM
[15] = second compound 0.0316 µM, first compound 0.00316 µM
[16] = second compound 0.0316 µM, first compound 0.01 µM
[17] = second compound 0.0316 µM, first compound 0.0316 µM
[18] = second compound 0.0316 µM, first compound 0.1 µM
[19] = second compound 0.0316 µM, first compound 0.316 µM
[20] = second compound 0.0316 µM, first compound 1 µM
[21] = second compound 0.1 µM, first compound 0.00316 µM
[22] = second compound 0.1 µM, first compound 0.01 µM
[23] = second compound 0.1 µM, first compound 0.0316 µM
[24] = second compound 0.1 µM, first compound 0.1 µM
[25] = second compound 0.1 µM, first compound 0.316 µM
[26] = second compound 0.1 µM, first compound 1 µM
[27] = second compound 0.316 µM, first compound 0.00316 µM
[28] = second compound 0.316 µM, first compound 0.01 µM
[29] = second compound 0.316 µM, first compound 0.0316 µM
[30] = second compound 0.316 µM, first compound 0.1 µM
[31] = second compound 0.316 µM, first compound 0.316 µM
[32] = second compound 0.316 µM, first compound 1 µM
[33] = second compound 1 µM, first compound 0.00316 µM
[34] = second compound 1 µM, first compound 0.01 µM
[35] = second compound 1 µM, first compound 0.0316 µM
[36] = second compound 1 µM, first compound 0.1 µM
[37] = second compound 1 µM, first compound 0.316 µM
[38] = second compound 1 µM, first compound 1 µM
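Also: spheroids exposed to compound for 7 days before readout.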
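For viability, T/C in this document: 100% = DMSO vehicle control luminescence.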

CCN1CCN(Cc2ccc(Nc3ncc(F)c(-c4cc(F)c5nc(C)n(C(C)C)c5c4)n3)nc2)CC1 + C=CC(=O)N1CCN(c2nc(OCC3CCCN3C)nc3c(F)c(-c4nc(N)cc(C)c4C(F)(F)F)c(Cl)cc23)C(C)C1
IC50 [1]: > 1 µM | IC50 [2]: > 1 µM | IC50 [3]: > 1 µM | IC50 [4]: > 1 µM | IC50 [5]: > 1 µM | IC50 [6]: > 1 µM | viability, T/C (second compound 0.00316 µM, first compound 0.00316 µM): 111% | viability, T/C (second compound 0.00316 µM, first compound 0.01 µM): 104% | viability, T/C [7]: 93.1% | viability, T/C [8]: 88.8% | viability, T/C [9]: 104% | viability, T/C [10]: 98.3% | viability, T/C (second compound 0.01 µM, first compound 0.00316 µM): 97.5% | viability, T/C (second compound 0.01 µM, first compound 0.01 µM): 101% | viability, T/C [11]: 93% | viability, T/C [12]: 95.6% | viability, T/C [13]: 96.2% | viability, T/C [14]: 89.4% | viability, T/C [15]: 100% | viability, T/C [16]: 101% | viability, T/C [17]: 95.4% | viability, T/C [18]: 93% | viability, T/C [19]: 98.3% | viability, T/C [20]: 87.8% | viability, T/C [21]: 106% | viability, T/C [22]: 105% | viability, T/C [23]: 90.3% | viability, T/C [24]: 88.9% | viability, T/C [25]: 91.5% | viability, T/C [26]: 84.5% | viability, T/C [27]: 105% | viability, T/C [28]: 100% | viability, T/C [29]: 98.2% | viability, T/C [30]: 89.7% | viability, T/C [31]: 91.8% | viability, T/C [32]: 84.3% | viability, T/C [33]: 102% | viability, T/C [34]: 104% | viability, T/C [35]: 100% | viability, T/C [36]: 93% | viability, T/C [37]: 79.7% | viability, T/C [38]: 94%

CCc1c2c(nc3ccc(O)cc13)-c1cc3c(c(=O)n1C2)COC(=O)[C@]3(O)CC
viability, T/C (compound 0.000949 µM): 108% [middle of 4 runs] | viability, T/C (compound 0.003 µM): 93.6% [middle of 4 runs] | viability, T/C (compound 0.00949 µM): 84.6% [middle of 4 runs] | viability, T/C (compound 0.03 µM): 68.7% [middle of 4 runs] | viability, T/C (compound 0.0949 µM): 50.5% [middle of 4 runs] | viability, T/C (compound 0.3 µM): 32% [middle of 4 runs] | IC50 (curve of compound): 90.4 nM [middle of 4 runs]

C=CC(=O)Nc1cc(Nc2nccc(-c3cn(C)c4ccccc34)n2)c(OC)cc1N(C)CCN(C)C + C#Cc1c(F)ccc2cc(O)cc(-c3ncc4c(N5CC6CCC(C5)N6)nc(OCC56CCCN5CC(F)C6)nc4c3F)c12
IC50 [3]: > 1 µM | IC50 [4]: > 1 µM | IC50 [5]: 0.765 µM | IC50 [6]: 0.401 µM | IC50 (curve of first compound, second compound 3.16 µM): 0.287 µM | IC50 (curve of first compound, second compound 10 µM): 0.125 µM | viability, T/C [15]: 114% | viability, T/C [16]: 98.3% | viability, T/C [17]: 111% | viability, T/C [18]: 92.2% | viability, T/C [19]: 78.9% | viability, T/C [20]: 57.1% | viability, T/C [21]: 110% | viability, T/C [22]: 98% | viability, T/C [23]: 105% | viability, T/C [24]: 94.5% | viability, T/C [25]: 74.5% | viability, T/C [26]: 57.8% | viability, T/C [27]: 98.4% | viability, T/C [28]: 103% | viability, T/C [29]: 80.7% | viability, T/C [30]: 92% | viability, T/C [31]: 72.8% | viability, T/C [32]: 42.5% | viability, T/C [33]: 91.2% | viability, T/C [34]: 99.6% | viability, T/C [35]: 60.5% | viability, T/C [36]: 73.7% | viability, T/C [37]: 61.1% | viability, T/C [38]: 29.8% | viability, T/C (second compound 3.16 µM, first compound 0.00316 µM): 90.2% | viability, T/C (second compound 3.16 µM, first compound 0.01 µM): 70.8% | viability, T/C (second compound 3.16 µM, first compound 0.0316 µM): 87.3% | viability, T/C (second compound 3.16 µM, first compound 0.1 µM): 69% | viability, T/C (second compound 3.16 µM, first compound 0.316 µM): 48.5% | viability, T/C (second compound 3.16 µM, first compound 1 µM): 19.8% | viability, T/C (second compound 10 µM, first compound 0.00316 µM): 67.4% | viability, T/C (second compound 10 µM, first compound 0.01 µM): 81.5% | viability, T/C (second compound 10 µM, first compound 0.0316 µM): 64.1% | viability, T/C (second compound 10 µM, first compound 0.1 µM): 56.2% | viability, T/C (second compound 10 µM, first compound 0.316 µM): 30.8% | viability, T/C (second compound 10 µM, first compound 1 µM): 24.6%

CC(C)NCC(C(=O)N1CCN(c2ncnc3c2C(C)CC3O)CC1)c1ccc(Cl)cc1 (stereo not drawn) + C=CC(=O)N1CCN(c2nc(OCC3CCCN3C)nc3c(F)c(-c4nc(N)cc(C)c4C(F)(F)F)c(Cl)cc23)C(C)C1
IC50 [1]: > 10 µM | IC50 [2]: > 10 µM | IC50 [3]: > 10 µM | IC50 [4]: > 10 µM | IC50 [5]: > 10 µM | IC50 [6]: > 10 µM | viability, T/C [7]: 117% | viability, T/C [8]: 116% | viability, T/C [9]: 107% | viability, T/C [10]: 95.5% | viability, T/C (second compound 0.00316 µM, first compound 3.16 µM): 102% | viability, T/C (second compound 0.00316 µM, first compound 10 µM): 102% | viability, T/C [11]: 106% | viability, T/C [12]: 110% | viability, T/C [13]: 103% | viability, T/C [14]: 108% | viability, T/C (second compound 0.01 µM, first compound 3.16 µM): 90.9% | viability, T/C (second compound 0.01 µM, first compound 10 µM): 105% | viability, T/C [17]: 97.2% | viability, T/C [18]: 113% | viability, T/C [19]: 110% | viability, T/C [20]: 103% | viability, T/C (second compound 0.0316 µM, first compound 3.16 µM): 105% | viability, T/C (second compound 0.0316 µM, first compound 10 µM): 94.2% | viability, T/C [23]: 108% | viability, T/C [24]: 103% | viability, T/C [25]: 99.5% | viability, T/C [26]: 106% | viability, T/C (second compound 0.1 µM, first compound 3.16 µM): 95.9% | viability, T/C (second compound 0.1 µM, first compound 10 µM): 91% | viability, T/C [29]: 106% | viability, T/C [30]: 112% | viability, T/C [31]: 105% | viability, T/C [32]: 99.3% | viability, T/C (second compound 0.316 µM, first compound 3.16 µM): 111% | viability, T/C (second compound 0.316 µM, first compound 10 µM): 99.1% | viability, T/C [35]: 106% | viability, T/C [36]: 104% | viability, T/C [37]: 118% | viability, T/C [38]: 99.8% | viability, T/C (second compound 1 µM, first compound 3.16 µM): 100% | viability, T/C (second compound 1 µM, first compound 10 µM): 99.4%
